The text below walks through data of patent publication US20120029190A1, “COMPOUNDS FOR TREATING DISORDERS MEDIATED BY METABOTROPIC GLUTAMATE RECEPTOR 5, AND METHODS OF USE THEREOF” (priority 2009, published 2012).

A value given as a limit tells only on which side of the number the result lay.

The target in this test is T1, human recombinant mGluR5 receptor (Homo sapiens, UniProt P41594).
T1 construct: expressed in transfected cells; expression induced with doxycycline
T1 sequence (P41594 21-1212): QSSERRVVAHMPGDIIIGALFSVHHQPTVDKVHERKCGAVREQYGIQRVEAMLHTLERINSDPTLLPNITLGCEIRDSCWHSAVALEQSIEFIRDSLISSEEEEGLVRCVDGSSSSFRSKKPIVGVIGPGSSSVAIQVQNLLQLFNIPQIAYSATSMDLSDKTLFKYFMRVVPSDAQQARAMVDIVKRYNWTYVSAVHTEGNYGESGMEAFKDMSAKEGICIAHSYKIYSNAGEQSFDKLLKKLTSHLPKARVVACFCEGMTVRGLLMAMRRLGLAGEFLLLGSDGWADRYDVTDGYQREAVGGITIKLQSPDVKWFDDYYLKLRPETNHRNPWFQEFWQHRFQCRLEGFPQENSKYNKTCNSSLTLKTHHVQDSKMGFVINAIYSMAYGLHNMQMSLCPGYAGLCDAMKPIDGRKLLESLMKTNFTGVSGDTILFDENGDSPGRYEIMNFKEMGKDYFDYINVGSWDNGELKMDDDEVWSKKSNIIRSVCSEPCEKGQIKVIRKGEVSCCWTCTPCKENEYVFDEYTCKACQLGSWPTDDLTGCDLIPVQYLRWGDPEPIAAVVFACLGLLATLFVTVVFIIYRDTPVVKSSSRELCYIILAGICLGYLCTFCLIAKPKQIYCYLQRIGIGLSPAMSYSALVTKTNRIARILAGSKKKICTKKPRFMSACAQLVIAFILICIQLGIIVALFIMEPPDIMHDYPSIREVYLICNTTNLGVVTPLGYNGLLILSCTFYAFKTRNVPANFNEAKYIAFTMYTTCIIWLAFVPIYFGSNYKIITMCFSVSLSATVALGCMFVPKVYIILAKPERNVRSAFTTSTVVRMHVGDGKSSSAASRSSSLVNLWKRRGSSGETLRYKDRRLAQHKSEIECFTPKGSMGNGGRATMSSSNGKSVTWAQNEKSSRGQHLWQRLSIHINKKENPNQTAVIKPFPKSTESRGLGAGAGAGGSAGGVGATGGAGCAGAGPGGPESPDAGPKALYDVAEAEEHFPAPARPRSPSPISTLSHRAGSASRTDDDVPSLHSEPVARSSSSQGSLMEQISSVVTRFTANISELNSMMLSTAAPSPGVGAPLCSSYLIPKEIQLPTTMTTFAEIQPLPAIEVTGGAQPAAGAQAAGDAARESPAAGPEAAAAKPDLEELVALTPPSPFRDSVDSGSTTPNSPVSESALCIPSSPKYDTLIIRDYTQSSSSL
Briefly: mGluR5 in vitro functional assay (aequorin cell line, inhibition of glutamate EC80 response). Format: cell-based. The following applies: Table 1; aequorin cell line expressing human mGluR5, reference agonist glutamate at EC80; obtained in duplicate; read-out: IC50. The method, then:
B. mGluR5 In Vitro Functional Assay
The functional assay utilized an aequorin cell line expressing human recombinant mGluR5 receptor, an inducible cell line that expresses the human receptor under the control of a promoter induced by doxycycline.
mGluR5 cells in mid-log phase, grown 18 hours prior to the test in antibiotic-free media supplemented with doxycycline (600 ng/mL), were detached by gentle flushing with PBS-EDTA ([…]). The cells were recovered by centrifugation and resuspended in assay buffer (HBSS, […], 3 ug/mL glutamate-pyruvate transaminase, […] MEM sodium pyruvate, 0.1% BSA protease-free). Cells were incubated at room temperature for at least 4 hours with Coelenterazine h (Molecular Probes). The cell suspension (60 uL) containing the test compound was mixed with a solution of reference agonist (30 uL) at its EC80, following an incubation of 3 min. after the first injection. The resulting emission of light was recorded using a Hamamatsu Functional Drug Screening System 6000 (FDSS 6000). To standardize the emission of recorded light (determination of the “100% signal’) across plates and across different experiments, some of the wells contained 100 uM digitonin or a saturating concentration (20 mM) of ATP. Plates also contained the reference agonist (glutamate) at a concentration equivalent to the EC80 obtained during assay validation. Percentages of inhibition were calculated on the basis of the activation induced by the reference agonist at a concentration equal to the EC80. Dose-response data were analyzed with XLFit (IDBS) software using nonlinear regression applied to a sigmoidal dose-response model.
Turning to `N#Cc1cccc(-c2nc3c(o2)CCN(c2ncccc2C#N)C3)c1` [Compound 63, 2-(2-(3-Cyanophenyl)-6,7-dihydrooxazolo[4,5-c]pyridin-5(4H)-yl)nicotinonitrile], the IC50 was < 10 µM. As for `N#Cc1cccc(-c2nc3c(o2)CCN(c2cccc(C#N)c2)C3)c1` [Compound 64, 3,3′-(6,7-Dihydrooxazolo[4,5-c]pyridine-2,5(4H)-diyl)dibenzonitrile], the IC50 is < 1 µM. Consider `N#Cc1cccc(-c2nc3c(o2)CN(c2ccccn2)CC3)c1` [Compound 65, 3-(5-(Pyridin-2-yl)-4,5,6,7-tetrahydrooxazolo[5,4-c]pyridin-2-yl)benzonitrile], for which the IC50 is > 10 µM. Under `N#Cc1cccc(-c2nc3c(o2)CN(c2ncccc2C#N)CC3)c1` [Compound 66, 2-(2-(3-Cyanophenyl)-6,7-dihydrooxazolo[5,4-c]pyridin-5(4H)-yl)nicotinonitrile] stands < 10 µM.

On to `N#Cc1cccc(-c2nc3c(o2)CN(c2cccc(C#N)c2)CC3)c1` [Compound 67, 3,3′-(6,7-Dihydrooxazolo[5,4-c]pyridine-2,5(4H)-diyl)dibenzonitrile], for which the IC50 is < 1 µM. As to `Clc1ccccc1-c1nc2c(o1)CN(c1ccccn1)CC2` [Compound 68, 2-(2-Chlorophenyl)-5-(pyridin-2-yl)-4,5,6,7-tetrahydrooxazolo[5,4-c]pyridine], the IC50 is < 10 µM.

Regarding `N#Cc1cccnc1N1CCc2nc(-c3ccccc3Cl)oc2C1` [Compound 69, 2-(2-(2-Chlorophenyl)-6,7-dihydrooxazolo[5,4-c]pyridin-5(4H)-yl)nicotinonitrile], the IC50 was < 10 µM. Consider `Clc1ccc(-c2nc3c(o2)CN(c2ccccn2)CC3)cc1` [Compound 70, 2-(4-Chlorophenyl)-5-(pyridin-2-yl)-4,5,6,7-tetrahydrooxazolo[5,4-c]pyridine], for which the IC50 is < 1 µM. Take `COc1cccc(-c2nc3c(o2)CN(c2ccccn2)CC3)c1` [Compound 71, 2-(3-Methoxyphenyl)-5-(pyridin-2-yl)-4,5,6,7-tetrahydrooxazolo[5,4-c]pyridine]: the IC50 was < 10 µM. The value for `COc1cccc(-c2nc3c(o2)CN(c2ncccc2C#N)CC3)c1` [Compound 72, 2-(2-(3-Methoxyphenyl)-6,7-dihydrooxazolo[5,4-c]pyridin-5(4H)-yl)nicotinonitrile] was < 1 µM; that for `COc1cccc(-c2nc3c(o2)CCN(c2ncccc2C#N)C3)c1` [Compound 73, 2-(2-(3-Methoxyphenyl)-6,7-dihydrooxazolo[4,5-c]pyridin-5(4H)-yl)nicotinonitrile] was > 10 µM.

Take `Cc1ccc(-c2nc3c(o2)CN(c2cccc(C#N)c2)CC3)nc1` [Compound 74, 3-(2-(5-Methylpyridin-2-yl)-6,7-dihydrooxazolo[5,4-c]pyridin-5(4H)-yl)benzonitrile]: the IC50 was < 10 µM.

As for `N#Cc1cccc(N2CCc3nc(-c4ccncc4)oc3C2)c1` [Compound 75, 3-(2-(Pyridin-4-yl)-6,7-dihydrooxazolo[5,4-c]pyridin-5(4H)-yl)benzonitrile], the IC50 was < 10 µM.

In the case of `Cc1ccnc(-c2nc3c(o2)CN(c2cccc(C#N)c2)CC3)c1` [Compound 76, 3-(2-(4-Methylpyridin-2-yl)-6,7-dihydrooxazolo[5,4-c]pyridin-5(4H)-yl)benzonitrile], the IC50 was < 10 µM.

With `N#Cc1cccc(N2CCc3nc(-c4cccnc4)oc3C2)c1` [Compound 77, 3-(2-(Pyridin-3-yl)-6,7-dihydrooxazolo[5,4-c]pyridin-5(4H)-yl)benzonitrile], the IC50 is > 10 µM.

On to `N#Cc1cccc(N2CCc3oc(-c4ccncc4)nc3C2)c1` [Compound 78, 3-(2-(Pyridin-4-yl)-6,7-dihydrooxazolo[4,5-c]pyridin-5(4H)-yl)benzonitrile], for which the IC50 is > 10 µM. Consider `Cc1cc(-c2nc3c(o2)CCN(c2ccccn2)C3)on1` [Compound 79, 2-(3-Methylisoxazol-5-yl)-5-(pyridin-2-yl)-4,5,6,7-tetrahydrooxazolo[4,5-c]pyridine], for which the IC50 was > 10 µM. With `N#Cc1cc(F)cc(N2CCc3oc(-c4ncco4)nc3C2)c1` [Compound 80, 3-Fluoro-5-(2-(oxazol-2-yl)-6,7-dihydrooxazolo[4,5-c]pyridin-5(4H)-yl)benzonitrile], the IC50 was < 10 µM. The value for `CC1Cc2nc(-c3ccccn3)oc2CN1c1cc(F)cc(C#N)c1` (stereo not shown) [Compound 83, 3-Fluoro-5-(6-methyl-2-(pyridin-2-yl)-6,7-dihydrooxazolo[5,4-c]pyridin-5(4H)-yl)benzonitrile] was < 1 µM. The value for `N#Cc1cccc(N2Cc3nc(-c4ccccn4)oc3C2)c1` [Compound 84, 3-(2-(Pyridin-2-yl)-4H-pyrrolo[3,4-d]oxazol-5(6H)-yl)benzonitrile] was < 1 µM; that for `N#Cc1cccnc1N1Cc2nc(-c3ccccn3)oc2C1` [Compound 85, 2-(2-(Pyridin-2-yl)-4H-pyrrolo[3,4-d]oxazol-5(6H)-yl)pyridine-3-carbonitrile] was < 1 µM.

With `N#Cc1cccc(-c2nc3c(o2)CN(c2ccccn2)C3)c1` [Compound 86, 3-(5-(Pyridin-2-yl)-5,6-dihydro-4H-pyrrolo[3,4-d]oxazol-2-yl)benzonitrile], the IC50 is > 10 µM. Turning to `N#Cc1cccc(-c2nc3c(o2)CN(c2ncccc2C#N)C3)c1` [Compound 87, 2-(2-(3-Cyanophenyl)-4H-pyrrolo[3,4-d]oxazol-5(6H)-yl)nicotinonitrile], the IC50 was < 1 µM.

As to `N#Cc1cccc(N2CCc3nc(-c4ccccn4)oc3CC2)c1` [Compound 88, 3-(2-(Pyridin-2-yl)-7,8-dihydro-4H-oxazolo[5,4-d]azepin-6(5H)-yl)benzonitrile], the IC50 is < 1 µM. `N#Cc1cc(F)cc(N2CCc3nc(-c4ccccn4)oc3CC2)c1` [Compound 89, 3-Fluoro-5-(2-(pyridin-2-yl)-7,8-dihydro-4H-oxazolo[5,4-d]azepin-6(5H)-yl)benzonitrile]: the IC50 is < 1 µM. The value for `N#Cc1cc(F)cc(N2CCCc3nc(-c4ccccn4)oc3C2)c1` [Compound 90, 3-Fluoro-5-(2-(pyridin-2-yl)-7,8-dihydro-4H-oxazolo[5,4-c]azepin-5(6H)-yl)benzonitrile] was < 1 µM. The value for `COc1cc(C#N)cc(N2CCCc3nc(-c4ccccn4)oc3C2)c1` [Compound 91, 3-Methoxy-5-(2-(pyridin-2-yl)-7,8-dihydro-4H-oxazolo[5,4-c]azepin-5(6H)-yl)benzonitrile] was < 1 µM; that for `N#Cc1cccc(N2CCCc3nc(-c4ncccn4)oc3C2)c1` [Compound 92, 3-(2-(Pyrimidin-2-yl)-7,8-dihydro-4H-oxazolo[5,4-c]azepin-5(6H)-yl)benzonitrile] was < 1 µM; that for `N#Cc1cccc(N2CCCc3nc(-c4ccccn4)oc3C2)c1` [Compound 93, 3-(2-(Pyridin-2-yl)-7,8-dihydro-4H-oxazolo[5,4-c]azepin-5(6H)-yl)benzonitrile] was < 1 µM. With `N#Cc1cc(N2CCCc3nc(-c4ccccn4)oc3C2)cc(C(F)(F)F)c1` [Compound 94, 3-(2-(Pyridin-2-yl)-7,8-dihydro-4H-oxazolo[5,4-c]azepin-5(6H)-yl)-5-(trifluoromethyl)benzonitrile], the IC50 was < 1 µM. The value for `FC(F)(F)c1cccc(N2CCCc3nc(-c4ccccn4)oc3C2)c1` [Compound 95, 2-(Pyridin-2-yl)-5-(3-(trifluoromethyl)phenyl)-5,6,7,8-tetrahydro-4H-oxazolo[5,4-c]azepine] was < 10 µM.

For the molecule `N#Cc1cc(F)cc(N2CCCc3nc(-c4ccc(F)cn4)oc3C2)c1` [Compound 96, 3-Fluoro-5-(2-(5-fluoropyridin-2-yl)-7,8-dihydro-4H-oxazolo[5,4-c]azepin-5(6H)-yl)benzonitrile], the IC50 was < 1 µM.

With `N#Cc1cccc(N2CCCc3nc(-c4ccc(F)cn4)oc3C2)c1` [Compound 97, 3-(2-(5-Fluoropyridin-2-yl)-7,8-dihydro-4H-oxazolo[5,4-c]azepin-5(6H)-yl)benzonitrile], the IC50 was < 1 µM. Under `N#Cc1cc(F)cc(N2CCCc3oc(-c4ccccn4)nc3C2)c1` [Compound 98, 3-Fluoro-5-(2-(pyridin-2-yl)-7,8-dihydro-4H-oxazolo[4,5-c]azepin-5(6H)-yl)benzonitrile] stands < 1 µM. With `N#Cc1cccc(N2CCCc3oc(-c4ccccn4)nc3C2)c1` [Compound 99, 3-(2-(Pyridin-2-yl)-7,8-dihydro-4H-oxazolo[4,5-c]azepin-5(6H)-yl)benzonitrile], the IC50 is < 1 µM. Under `Fc1cccc(N2CCCc3oc(-c4ccccn4)nc3C2)c1` [Compound 100, 5-(3-Fluorophenyl)-2-(pyridin-2-yl)-5,6,7,8-tetrahydro-4H-oxazolo[4,5-c]azepine] stands < 1 µM; under `Fc1cc(F)cc(N2CCCc3oc(-c4ccccn4)nc3C2)c1` [Compound 101, 5-(3,5-Difluorophenyl)-2-(pyridin-2-yl)-5,6,7,8-tetrahydro-4H-oxazolo[4,5-c]azepine], < 1 µM.
